According to patent US10308645B2, “Piperidine oxadiazole and thiadiazole orexin receptor antagonists” (MERCK SHARP & DOHME CORP., priority 2014, dated 2019):

Key:
[1] = molecular target: human orexin-2 receptor (Homo sapiens (Human), UniProt O43614); assay: FLIPR Ca2+ Flux Assay, hOX2R; assay type: cell-based; conditions: CHO cells expressing the receptor; agonist Ala-6,12 human orexin-A
Method: The utility of the compounds in accordance with the present invention as orexin receptor OX1R and/or OX2R antagonists may be readily determined without undue experimentation by methodology well known in the art, including the “FLIPR Ca^2+ Flux Assay” (Okumura et al., Biochem. Biophys. Res. Comm. 280:976-981, 2001). In a typical experiment the OX1 and OX2 receptor antagonistic activity of the compounds of the present invention was determined in accordance with the following experimental method. For intracellular calcium measurements, Chinese hamster ovary (CHO) cells expressing the rat orexin-1 receptor or the human orexin-2 receptor, are grown in Iscove's modified DMEM containing 2 mM L-glutamine, […], 1% hypoxanthine-thymidine supplement, 100 U/ml penicillin, 100 μg/ml streptomycin and 10% heat-inactivated fetal calf serum (FCS). The cells are seeded at 20,000 cells/well into Becton-Dickinson black 384-well clear bottom sterile plates coated with poly-D-lysine. All reagents were from GIBCO-Invitrogen Corp. The seeded plates are incubated overnight at 37° C. and 5% CO2. Ala-6,12 human orexin-A as the agonist is prepared as a 1 mM stock solution in 1% bovine serum albumin (BSA) and diluted in assay buffer (HBSS containing 20 mM HEPES, 0.1% BSA and 2.5 mM probenecid, pH7.4) for use in the assay at a final concentration of 70 pM. Test compounds are prepared as 10 mM stock solution in DMSO, then diluted in 384-well plates, first in DMSO, then assay buffer. On the day of the assay, cells are washed 3 times with 100 μl assay buffer and then incubated for 60 min (37° C., 5% CO2) in 60 μl assay buffer containing 1 μM Fluo-4AM ester, 0.02% pluronic acid, and 1% BSA. The dye loading solution is then aspirated and cells are washed 3 times with 100 μl assay buffer. 30 μl of that same buffer is left in each well. Within the Fluorescent Imaging Plate Reader (FLIPR, Molecular Devices), test compounds are added to the plate in a volume of 25 μl, incubated for 5 min and finally 25 μl of agonist is added. Fluorescence is measured for each well at 1 second intervals for 5 minutes and the height of each fluorescence peak is compared to the height of the fluorescence peak induced by […] Ala-6,12 orexin-A with buffer in place of antagonist. For each antagonist, IC50 value (the concentration of compound needed to inhibit 50% of the agonist response) is determined. Alternatively, compound potency can be assessed by a radioligand binding assay (described in Bergman et. al. Bioorg. Med. Chem. Lett. 2008, 18, 1425-1430) in which the inhibition constant (Ki) is determined in membranes prepared from CHO cells expressing either the OX1 or OX2 receptor. The intrinsic orexin receptor antagonist activity of a compound which may be used in the present invention may be determined by these assays.

[2] = molecular target: hOX1R (orexin-1 receptor) (Homo sapiens, UniProt O43613); assay: FLIPR Ca2+ Flux Assay, hOX1R; assay type: cell-based; conditions: CHO cells expressing the receptor; agonist Ala-6,12 human orexin-A

Chain of human orexin-2 receptor (O43614 whole entry): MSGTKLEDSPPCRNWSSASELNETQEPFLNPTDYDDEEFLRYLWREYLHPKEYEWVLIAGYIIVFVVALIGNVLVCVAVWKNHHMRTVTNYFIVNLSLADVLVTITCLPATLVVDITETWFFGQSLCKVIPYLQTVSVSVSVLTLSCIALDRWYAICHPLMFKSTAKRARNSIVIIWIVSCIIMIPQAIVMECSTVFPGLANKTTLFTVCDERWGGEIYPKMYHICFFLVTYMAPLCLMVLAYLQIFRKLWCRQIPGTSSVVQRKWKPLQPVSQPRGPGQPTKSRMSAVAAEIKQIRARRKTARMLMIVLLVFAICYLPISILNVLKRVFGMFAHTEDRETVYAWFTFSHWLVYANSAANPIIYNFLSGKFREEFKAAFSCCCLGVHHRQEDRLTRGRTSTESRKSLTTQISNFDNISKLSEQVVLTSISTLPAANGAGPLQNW

Row | Structure (SMILES) | IC50 [1] | IC50 [2]
1 | C[C@@H]1CC[C@@H](c2noc(C(C)(C)O)n2)CN1C(=O)c1cscc1-c1ncccn1 [Example 24, 2-(3-{(3R,6R)-6-methyl-1-[(4-pyrimidin-2-ylthiophen-3-yl)carbonyl]piperidin-3-yl}-1,2,4-oxadiazol-5-yl)propan-2-ol] | 76 nM | > 10000 nM
2 | C[C@@H]1CC[C@@H](c2nc(C(C)(C)C)no2)CN1C(=O)c1ccccc1-n1nccn1 [Example 25, (2R,5R)-5-(3-tert-Butyl-1,2,4-oxadiazol-5-yl)-2-methyl-1-{[2-(2H-1,2,3-triazol-2-yl)phenyl]carbonyl}piperidine] | 87 nM | 1150 nM
3 | CC(C)c1noc([C@@H]2CC[C@@H](C)N(C(=O)c3ccccc3-n3nccn3)C2)n1 [Example 26, (2R,5R)-2-methyl-5-[3-(1-methylethyl)-1,2,4-oxadiazol-5-yl]-1-{[2-(2H-1,2,3-triazol-2-yl)phenyl]carbonyl}piperidine] | 124 nM | 4500 nM
4 | C[C@@H]1CC[C@@H](c2nc(C(C)(C)O)no2)CN1C(=O)c1ccccc1-n1nccn1 [Example 27, 2-{5-[(3R,6R)-6-methyl-1-{[2-(2H-1,2,3-triazol-2-yl)phenyl]carbonyl}piperidin-3-yl]-1,2,4-oxadiazol-3-yl}propan-2-ol] | 75 nM | > 10000 nM
5 | C[C@@H]1CC[C@@H](c2nc(C3CC3)no2)CN1C(=O)c1ccccc1-n1nccn1 [Example 28, (2R,5R)-5-(3-cyclopropyl-1,2,4-oxadiazol-5-yl)-2-methyl-1-{[2-(2H-1,2,3-triazol-2-yl)phenyl]carbonyl}piperidine] | 345 nM | > 10000 nM
6 | C[C@@H]1CC[C@@H](c2nsc(C(C)(C)O)n2)CN1C(=O)c1ccsc1-n1nccn1 [Example 29, 2-{3-[(3R,6R)-6-Methyl-1-{[2-(2H-1,2,3-triazol-2-yl)thiophen-3-yl]carbonyl}piperidin-3-yl]-1,2,4-thiadiazol-5-yl}propan-2-ol] | 88 nM | > 10000 nM
7 | CC(C)Oc1ncccc1C(=O)N1C[C@H](c2nsc(C(C)(C)O)n2)CC[C@H]1C [Example 30, 2-{3-[(3R,6R)-6-methyl-1-{[2-(1-methylethoxy)pyridin-3-yl]carbonyl}piperidin-3-yl]-1,2,4-thiadiazol-5-yl}propan-2-ol] | 298 nM | > 10000 nM
8 | C[C@@H]1CC[C@@H](c2nsc(C(C)(C)O)n2)CN1C(=O)c1cscc1-n1nccn1 [Example 31, 2-{3-[(3R,6R)-6-methyl-1-{[4-(2H-1,2,3-triazol-2-yl)thiophen-3-yl]carbonyl}piperidin-3-yl]-1,2,4-thiadiazol-5-yl}propan-2-ol] | 110 nM | > 10000 nM
9 | C[C@@H]1CC[C@@H](c2nsc(C(C)(C)O)n2)CN1C(=O)c1ccccc1C1(C#N)CC1 [Example 32, 1-[2-({(2R,5R)-5-[5-(1-hydroxy-1-methylethyl)-1,2,4-thiadiazol-3-yl]-2-methylpiperidin-1-yl}carbonyl)phenyl]cyclopropane-carbonitrile] | 18 nM | 2420 nM
10 | C[C@@H]1CC[C@@H](c2nsc(C(C)(C)O)n2)CN1C(=O)c1ccccc1CS(C)(=O)=O [Example 33, 2-{3-[(3R,6R)-6-methyl-1-({2-[(methylsulfonyl)methyl]phenyl}carbonyl)piperidin-3-yl]-1,2,4-thiadiazol-5-l}propan-2-ol] | 194 nM | > 10000 nM
11 | C[C@@H]1CC[C@@H](c2nsc(C(C)(C)O)n2)CN1C(=O)c1ccccc1-n1ncnn1 [Example 34, 2-{3-[(3R,6R)-6-methyl-1-{[2-(2H-tetrazol-2-yl)phenyl]carbonyl}piperidin-3-yl]-1,2,4-thiadiazol-5-yl}propan-2-ol] | 339 nM | > 10000 nM
12 | C[C@@H]1CC[C@@H](c2nsc(C(C)(C)O)n2)CN1C(=O)c1ccccc1-n1nccn1 [Example 35, 2-{3-[(3R,6R)-6-methyl-1-{[2-(2H-1,2,3-triazol-2-yl)phenyl]carbonyl}piperidin-3-yl]-1,2,4-thiadiazol-5-yl}propan-2-ol] | 27 nM | 2380 nM
13 | C[C@@H]1CC[C@@H](c2nsc(C(C)(C)O)n2)CN1C(=O)c1ccccc1OC(F)F [Example 36, 2-{3-[(3R,6R)-1-{[2-(difluoromethoxy)phenyl]carbonyl}-6-methylpiperidin-3-yl]-1,2,4-thiadiazol-5-yl}propan-2-ol] | 243 nM | > 10000 nM
14 | CCOc1ccccc1C(=O)N1C[C@H](c2nsc(C(C)(C)O)n2)CC[C@H]1C [Example 37, 2-(3-{(3R,6R)-1-[(2-ethoxyphenyl)carbonyl]-6-methylpiperidin-3-yl}-1,2,4-thiadiazol-5-yl)propan-2-ol] | 146 nM | > 10000 nM
15 | C[C@@H]1CC[C@@H](c2nsc(C(C)(C)O)n2)CN1C(=O)c1ccccc1OC(F)(F)F [Example 39, 2-{3-[(3R,6R)-6-methyl-1-{[2-(trifluoromethoxy)phenyl]carbonyl}piperidin-3-yl]-1,2,4-thiadiazol-5-yl}propan-2-ol] | 53 nM | 6380 nM
16 | C[C@@H]1CC[C@@H](c2nsc(C(C)(C)O)n2)CN1C(=O)c1ccsc1-c1ncccn1 [Example 40, 2-(3-{(3R,6R)-6-Methyl-1-[(2-pyrimidin-2-ylthiophen-3-yl)carbonyl]piperidin-3-yl}-1,2,4-thiadiazol-5-yl)propan-2-ol] | 50 nM | 9990 nM
17 | C[C@@H]1CC[C@@H](c2nsc(C(C)(C)O)n2)CN1C(=O)c1ccccc1-c1ncccn1 [Example 41, 2-(3-{(3R,6R)-6-Methyl-1-[(2-pyrimidin-2-ylphenyl)carbonyl]piperidin-3-yl}-1,2,4-thiadiazol-5-yl)propan-2-ol] | 48 nM | > 10000 nM
18 | C[C@@H]1CC[C@@H](c2nsc(C(C)(C)O)n2)CN1C(=O)c1cscc1-c1ncccn1 [Example 42, 2-(3-{(3R,6R)-6-methyl-1-[(4-pyrimidin-2-ylthiophen-3-yl)carbonyl]piperidin-3-yl}-1,2,4-thiadiazol-5-yl)propan-2-ol] | 83 nM | > 10000 nM
19 | COC(C)(C)c1nc([C@@H]2CC[C@@H](C)N(C(=O)c3ccccc3-n3nccn3)C2)ns1 [Example 43, (2R,5R)-5-[5-(1-methoxy-1-methylethyl)-1,2,4-thiadiazol-3-yl]-2-methyl-1-{[2-(2H-1,2,3-triazol-2-yl)phenyl]carbonyl}piperidine] | 39 nM | 1410 nM
